{
  "source": "patent US9233092B2",
  "about": "“Compositions and methods for inhibiting gastric acid secretion using derivatives of small dicarboxylic acids in combination with PPI” (Vecta, Ltd., priority 2006, dated 2016)",
  "key": {"[1]": {"test_system": "gastric acid secretion", "test": "Stimulation of gastric acid secretion after oral administration, pylorus ligated 60 min after dosing, acid output by NaOH titration", "type": "in vivo", "conditions": "rats, per os, SA 14.88 mg/kg, mS 16.65 mg/kg, dmS 17.65 mg/kg, gastric juice collected 30 min later", "protocol": "Rats were administered (per os) with succinic acid (SA, 14.88 mg/kg), monomethylester of succinic acid (mS, 16.65 mg/kg) or dimethyl ester of succinic acid (dmS, 17.65 mg/kg) using gavage. 60 minutes later the rats were anesthetized with ketamine/domitor and the pylorus was ligated. Following additional 30 min, gastric juice was collected from the gastric lumen. Acid output was determined by titration with NaOH. Total acid output expressed in mEq HCl was calculated by multiplying the sample volume by the acid concentration. Results are expressed as means±SEM of 8 animals from each experimental group."}, "[2]": {"test_system": "gastric acid secretion", "test": "Conscious pylorus-ligated rats: effect of succinates on the activity of pantoprazole on gastric acid secretion", "type": "in vivo", "conditions": "oral gavage, succinate (SA 14.88 mg/kg or dmS 17.65 mg/kg) given 30 min prior to pantoprazole, FIG. 2", "protocol": "To further study the delayed or sustained enhancement effect of dimethyl ester of succinic acid on the activity of pantoprazole, an experimental model of conscious pylorus-ligated rats was used. This experimental model permits the analysis of the effect of drugs on gastric acid secretion in conscious animals and avoids the effect of anesthesia on gastric acid secretion. Pantoprazole alone ([…]) or in combination with succinic acid (SA, 14.88 mg/kg) or dimethyl ester of succinic acid (dmS, 17.65 mg/kg) were administered by oral gavage. The succinates were administered 30 min prior to the administration of pantoprazole in order to test the sustained or delayed effect of dimethyl ester of succinic acid compared to the non-derivatized succinic acid. 120 min post succinates administration, the animals were anesthetized using anesthetic gas machine for a short period (5 minutes) that is sufficient to perform the pylorus ligation procedure and to close the abdomen. The animals were then placed back into its cage for additional 110 min after which the animals were sacrificed. The ligature was placed around the esophagus, the stomach removed and gastric content was collected. Following centrifugation, the gastric output and the pH of the gastric juice samples was determined. Data is presented as mean±SEM of gastric output. The number of animals is 6-7 in each experimental group."}, "[3]": {"test_system": "gastric acid output", "conditions": "humans; Teyssen et al., J. Clin Invest. 1999; cited from earlier work"}},
  "note": "“Also recorded” adds a separate entry of the source.",
  "data": [
    {"smiles": "COC(=O)CCC(=O)O", "note": "[mS, monomethylester of succinic acid]", "values": [
      {"measurement": "gastric acid output (total acid output)", "setting": "[1]; FIG. 1", "result": "effective in enhancing gastric output"}
    ]},
    {"smiles": "COC(=O)CCC(=O)OC", "note": "[dmS, dimethyl ester of succinic acid]", "values": [
      {"measurement": "enhancement of the effect of pantoprazole (PPI) on gastric acid output", "setting": "[2]", "result": "capable of enhancing the activity of pantoprazole on gastric acid secretion; also recorded: capable of enhancing the effect of PPI on gastric acid output"},
      {"measurement": "gastric acid output (total acid output)", "setting": "[1]; FIG. 1", "result": "effective in enhancing gastric output"},
      {"measurement": "gastric acid output (total acid output)", "setting": "[1]; FIG. 1, listed as succinic acid dimethyl ester", "result": "capable of enhancing gastric acid output even after 60 minutes from dosing"}
    ]},
    {"smiles": "O=C(O)/C=C\\C(=O)O", "note": "[Maleic acid]", "values": [
      {"measurement": "stimulation of gastric acid output", "setting": "[3]", "result": "powerful stimulants of gastric acid output"}
    ]},
    {"smiles": "O=C(O)CCC(=O)O", "note": "[SA, succinic acid, reference compound]", "values": [
      {"measurement": "stimulation of gastric acid output", "setting": "[3]", "result": "powerful stimulants of gastric acid output"},
      {"measurement": "enhancement of the effect of pantoprazole (PPI) on gastric acid output", "setting": "[2]", "result": "only dimethyl ester of succinic acid was capable of enhancing the effect of PPI"},
      {"measurement": "gastric acid output (total acid output)", "setting": "[1]; FIG. 1", "result": "did not show an effect"}
    ]}
  ]
}
